# Assay results published in patent publication US20230114728A1 (Venatorx Pharmaceuticals, Inc., priority 2019, published 2023).
# Legend:
# P. aeruginosa PBP3 = target: T1, P. aeruginosa PBP3 (Pseudomonas aeruginosa, UniProt G3XD46); experiment: Bocillin-FL fluorescence polarization competition binding assay, P. aeruginosa PBP3; conditions: fluorescence polarization competition binding assay using Bocillin-FL
# T1 construct: made in house
# Summary of the method: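 Inhibitor competition with Bocillin-FL for P. aeruginosa PBP3 was followed by fluorescence polarization on a Cytation3 (BioTek) reader, using g-factor 0.96, 490 nm excitation and 520 nm emission. The enzyme was at 0.75 μM and the probe at 0.1 μM in Hepes/NaCl/glycerol buffer, 80 μl per well. FP was recorded immediately after probe addition for up to 60 minutes. Potency was expressed as EC50, the concentration that reduces bound probe by 50%.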
# P. aeruginosa ATCC 35151 = experiment: Broth microdilution MIC in CAMHB; format: cell-based; conditions: Pseudomonas aeruginosa, ATCC35151; MHB; hyper-permeable strain; read-out: Minimum Inhibitory Concentration, P. aeruginosa ATCC 35151
# Summary of the method: (§1)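 Hyper-permeable or efflux-deficient strains serve to probe outer-membrane penetration. Growth inhibition is scored visually after 16-20 h at 37° C in CAMHB, starting from 2-8×10^5 CFU/mL.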
# P. aeruginosa ATCC 27853 = experiment: Broth microdilution MIC in CAMHB; format: cell-based; conditions: Pseudomonas aeruginosa, ATCC27853; MHB; read-out: Minimum Inhibitory Concentration, P. aeruginosa ATCC 27853
# Summary of the method: as §1
# [1] = tested on: K. pneumoniae SI-117 producing VIM-1; experiment: Broth microdilution MIC in CAMHB; format: cell-based; conditions: Klebsiella pneumoniae, read-out: Minimum Inhibitory Concentration, K. pneumoniae SI-117
# Summary of the method: as §1
# E. coli AG100A = experiment: Broth microdilution MIC in CAMHB; format: cell-based; conditions: Escherichia coli, read-out: Minimum Inhibitory Concentration, E. coli AG100A
# Summary of the method: as §1
# T1 sequence (G3XD46 whole entry): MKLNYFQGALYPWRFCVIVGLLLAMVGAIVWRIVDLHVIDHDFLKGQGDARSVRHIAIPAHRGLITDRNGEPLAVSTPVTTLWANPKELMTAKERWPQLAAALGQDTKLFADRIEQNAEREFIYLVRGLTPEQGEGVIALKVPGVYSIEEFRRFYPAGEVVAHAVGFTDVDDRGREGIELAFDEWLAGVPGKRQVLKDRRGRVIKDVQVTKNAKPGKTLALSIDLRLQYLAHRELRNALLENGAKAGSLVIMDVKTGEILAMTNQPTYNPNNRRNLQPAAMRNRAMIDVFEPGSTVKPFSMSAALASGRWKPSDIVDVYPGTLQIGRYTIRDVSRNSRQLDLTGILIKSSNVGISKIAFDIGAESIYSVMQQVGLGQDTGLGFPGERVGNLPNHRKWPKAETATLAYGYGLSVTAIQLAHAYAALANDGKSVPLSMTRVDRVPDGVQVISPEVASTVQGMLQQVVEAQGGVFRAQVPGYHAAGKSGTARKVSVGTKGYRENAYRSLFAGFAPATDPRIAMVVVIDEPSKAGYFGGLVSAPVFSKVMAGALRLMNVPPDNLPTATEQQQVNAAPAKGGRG
SMILES,P. aeruginosa PBP3 Potency (P. aeruginosa PBP3),MIC (P. aeruginosa ATCC 35151) [µg/mL],MIC (P. aeruginosa ATCC 27853) [µg/mL],MIC [1] [µg/mL],MIC (E. coli AG100A) [µg/mL]
"CCN1CCN(C(=O)NC(C(=O)N[C@H]2Cc3cccc(C(=O)O)c3OB2O)c2ccc(O)c(N(S(C)(=O)=O)S(C)(=O)=O)c2)C(=O)C1=O (stereo partly drawn) [Example 21, (3R)-3-(2-(4-ethyl-2,3-dioxopiperazine-1-carboxamido)-2-(4-hydroxy-3-(N-(methylsulfonyl)methylsulfonamido)phenyl)acetamido)-2-hydroxy-3,4-dihydro-2H-benzo[e][1,2]oxaborinine-8-carboxylic acid]",D (D represents a potency <10 μM),2 to 4,> 128,> 128,2 to 4
"CCN1CCN(C(=O)NC(C(=O)N[C@H]2Cc3cccc(C(=O)O)c3OB2O)c2ccc(N)c(F)c2)C(=O)C1=O (stereo partly drawn) [Example 50, (3R)-3-(2-(4-amino-3-fluorophenyl)-2-(4-ethyl-2,3-dioxopiperazine-1-carboxamido)acetamido)-2-hydroxy-3,4-dihydro-2H-benzo[e][1,2]oxaborinine-8-carboxylic acid]",D (D represents a potency <10 μM),0.5 to 1,> 128,> 128,2 to 4
"CCN1CCN(C(=O)N[C@H](C(=O)N[C@H]2Cc3cccc(C(=O)O)c3OB2O)c2nc(Cl)c(C(=O)O)cc2F)C(=O)C1=O [Example 19, 6-((S)-2-(((R)-8-carboxy-2-hydroxy-3,4-dihydro-2H-benzo[e][1,2]oxaborinin-3-yl)amino)-1-(4-ethyl-2,3-dioxopiperazine-1-carboxamido)-2-oxoethyl)-2-chloro-5-fluoronicotinic acid]",D (D represents a potency <10 μM),0.5 to 1,> 128,> 128,32 to 64
"NCCCN1CCN(C(=O)NC(C(=O)N[C@H]2Cc3cccc(C(=O)O)c3OB2O)c2ccc(C(=O)O)cc2)C(=O)C1=O (stereo partly drawn) [Example 39, (3R)-3-(2-(4-(3-aminopropyl)-2,3-dioxopiperazine-1-carboxamido)-2-(4-carboxyphenyl)acetamido)-2-hydroxy-3,4-dihydro-2H-benzo[e][1,2]oxaborinine-8-carboxylic acid]",D (D represents a potency <10 μM),< 0.25,8 to 16,> 128,8 to 16
"NCCN1CCN(C(=O)N[C@@H](C(=O)N[C@H]2Cc3cccc(C(=O)O)c3OB2O)c2ccc(C(=O)O)cc2)C(=O)C1=O (single isomer, unassigned) [Example 84]",D (D represents a potency <10 μM),0.5 to 1,32 to 64,> 128,2 to 4
"NCCN1CCN(C(=O)NC(C(=O)N[C@H]2Cc3cccc(C(=O)O)c3OB2O)c2cc(Cl)c(O)cc2F)C(=O)C1=O (stereo partly drawn) [Example 87, (3R)-3-(2-(4-(2-aminoethyl)-2,3-dioxopiperazine-1-carboxamido)-2-(5-chloro-2-fluoro-4-hydroxyphenyl)acetamido)-2-hydroxy-3,4-dihydro-2H-benzo[e][1,2]oxaborinine-8-carboxylic acid]",D (D represents a potency <10 μM),0.5 to 1,> 128,32 to 64,0.5 to 1
